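All cell lines were grown in 96-well plates and treated with compound for 48 hours. GI50 marks 50% less growth.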 Calls of active or inactive are those of the source. Cut-off read from the data, not from the text of the source: active = GI50 up to about 1.1 µM and inactive = higher.

Holding throughout (assay): growth of human tumour cells (NCI), 48 h
Test [1] has as its system EKVX.
Test [2] has as its system UO-31.
In test [3] the test system is RXF 393.
Test [4] relates to IGROV-1.
Test [5] concerns NCI-H23.
The subject of test [6] is SNB-75.
Test [7] deals with K562.
Test [8] relates to HCC 2998.
Test [9] concerns SN12C.
For test [10], the system named is NCI-H226.
Test [11] has as its system HL-60.
In test [12] the test system is CCRF-CEM.
The subject of test [13] is HOP-92.
For test [14], the system named is NCI-H460.
Test [15] concerns SF-295.
The test system of test [16] is M14.
The test system of test [17] is SNB-19.
The subject of test [18] is UACC-257.
In test [19] the test system is LOX IMVI.
Test [20] relates to OVCAR-3.

Consider `O=c1c2cccnc2[s+]([O-])n1Cc1ccccc1` (configuration not stated), for which the GI50 in test [1], in [2], in [3], in [4], in test [5] and in test [6] was > 100 µM (inactive) each time. The GI50 in test [7] is > 100 µM (inactive); in test [8] it was > 100 µM (inactive); in test [9], > 100 µM (inactive); in [10], > 100 µM (inactive); in test [11], > 10 µM (inactive); in test [12] it was 3.01 µM (inactive). Besides, the GI50 in [13], in test [14], in [15], in [16], in test [17] and in test [18] was > 100 µM (inactive) each time.

For the compound `O=C1CSc2ccnc(=O)n21`, the GI50 in test [1] is > 100 µM (inactive); in test [2], > 100 µM (inactive); in test [3], > 100 µM (inactive); in [4], > 100 µM (inactive); in [5], > 100 µM (inactive); in test [6], 93.5 µM (inactive). In addition, the GI50 in test [8], in test [9], in [11], in test [12], in [13] and in test [14] was > 100 µM (inactive) throughout. Moreover, the GI50 in test [16], in test [17] and in test [18] was > 100 µM (inactive) each time.

For the compound `CCOC(=O)C1=C(C)OC2(O)C=CC(O)=C3C(=O)N(c4ccccc4)C(=O)C312` (configuration not stated), the GI50 in [1] was 54 µM (inactive); in test [19] it was 21.8 µM (inactive); in test [2] it was 24.4 µM (inactive); in test [3] it was 26.4 µM (inactive); in test [4] it was 29 µM (inactive); in test [5], 40.8 µM (inactive). The GI50 in [6] was 41.8 µM (inactive); in [7], 32.7 µM (inactive); in [8], 37.3 µM (inactive); in test [9], 40.7 µM (inactive); in test [10], 34.2 µM (inactive); in test [11], 29.4 µM (inactive). Also, the GI50 in [13] is 21 µM (inactive); in test [14], > 100 µM (inactive); in [20], 61.9 µM (inactive); in test [15] it was > 100 µM (inactive); in test [16], 50.5 µM (inactive); in test [17] it was 22.8 µM (inactive). The GI50 in test [18] was 39.1 µM (inactive).

Consider `Nn1c(CCCCCCCCc2nnc(-c3c(O)ccc4ccccc34)n2N)nnc1-c1c(O)ccc2ccccc12`, for which the GI50 in test [19], in [2], in test [4], in test [5], in [6] and in test [8] was > 100 µM (inactive) in each case. In addition, the GI50 in test [9], in test [10], in [11], in [13], in test [14] and in [20] was > 100 µM (inactive) in each case. Besides, the GI50 in test [15], in [16], in test [17] and in [18] was > 100 µM (inactive) each time.

Turning to `COC1(OC)CC2C(=O)N(Cc3ccccc3)C1C(S(=O)(=O)c1ccccc1)C2S(=O)(=O)c1ccccc1` (configuration not stated), the GI50 in [19] is 10.2 µM (inactive); in [2] it was 17.4 µM (inactive); in test [3] it was 12.6 µM (inactive); in test [4] it was 17.2 µM (inactive); in test [5], 13.6 µM (inactive); in test [6] it was 14.2 µM (inactive). Further, the GI50 in test [7] is 7.48 µM (inactive); in [8], 17.1 µM (inactive); in test [9], 12.7 µM (inactive); in [10], 19.7 µM (inactive); in test [11] it was 3.87 µM (inactive); in test [12], 2.91 µM (inactive). In addition, the GI50 was 19.3 µM (inactive) in test [13]; 27.7 µM (inactive) in test [14]; 10.9 µM (inactive) in test [20]; 45.7 µM (inactive) in test [15]; 14.8 µM (inactive) in [16]; > 100 µM (inactive) in [17]. The GI50 in test [18] was 7.38 µM (inactive).

For `COc1ccc2c(c1)CC[C@@H]1[C@@H]2CC[C@]2(C)C(=O)/C(=C/c3ccc(OC)c(OC)c3)C[C@@H]12`, the GI50 in test [1] is > 100 µM (inactive); in [2], > 100 µM (inactive); in test [3] it was > 100 µM (inactive); in test [5] it was 97.9 µM (inactive); in test [6] it was > 100 µM (inactive); in [8] it was > 100 µM (inactive). Besides, the GI50 in test [11] was > 100 µM (inactive); in test [13] it was 97.5 µM (inactive); in test [14] it was > 100 µM (inactive); in [20] it was > 100 µM (inactive); in test [15], > 100 µM (inactive); in test [16] it was > 100 µM (inactive). Further, the GI50 in [17] is > 100 µM (inactive).

On to `Cc1cccc(N2C(=O)C(=O)C(c3nc4ccccc4s3)C(=O)C2=O)c1C`, for which the GI50 in [1], in test [19], in test [2], in test [4], in [5] and in test [6] was > 100 µM (inactive) in each case. Moreover, the GI50 in test [7] is > 100 µM (inactive); in test [8] it was > 100 µM (inactive); in [9], > 100 µM (inactive); in [10], > 100 µM (inactive); in test [11] it was < 0.01 µM (active); in test [12], 35.7 µM (inactive). In addition, the GI50 in test [13], in test [20], in [15], in [16], in test [17] and in [18] was > 100 µM (inactive) throughout.

On to `Cn1/c(=N\c2ccc(Cl)cc2)sc2ccccc21`, for which the GI50 is 21.1 µM (inactive) in [1]; 34.7 µM (inactive) in test [19]; 26.1 µM (inactive) in test [2]; 50.8 µM (inactive) in test [3]; 55.3 µM (inactive) in test [4]; 38.9 µM (inactive) in test [5]. Moreover, the GI50 was 45.8 µM (inactive) in test [6]; 57.9 µM (inactive) in [7]; 23.7 µM (inactive) in [8]; 75.3 µM (inactive) in test [9]; 46 µM (inactive) in test [10]; 44.9 µM (inactive) in [11]. The GI50 was > 100 µM (inactive) in test [12]; 23.3 µM (inactive) in test [13]; 40.7 µM (inactive) in [14]; 33.4 µM (inactive) in test [15]; > 100 µM (inactive) in test [17]; 35.7 µM (inactive) in test [18].

Regarding `CC(C)=CCC/C(C)=C/COC(C)(C)C1=CCC(C)CC1.CC(C)=CCC/C(C)=C/COC1CC(C)CCC1=C(C)C` (configuration not stated), the GI50 in test [1], in [2], in [3], in test [4], in test [5] and in [6] was > 100 µM (inactive) each time. The GI50 in test [8] is > 100 µM (inactive); in test [9], > 100 µM (inactive); in [11], 22 µM (inactive); in [13], > 100 µM (inactive); in test [14], > 100 µM (inactive); in test [20], > 100 µM (inactive). Moreover, the GI50 is > 100 µM (inactive) in test [15], > 100 µM (inactive) in test [16], > 100 µM (inactive) in test [17] and 63.8 µM (inactive) in test [18].

For the compound `C[C@H](NS(=O)(=O)c1ccc(NC(=O)c2ccccc2)cc1)C(=O)O`, the GI50 in test [1], in test [19], in [2], in test [3], in test [4] and in test [5] was > 100 µM (inactive) throughout. Further, the GI50 in test [6], in test [7], in [8], in test [9], in test [11] and in test [12] was > 100 µM (inactive) in each case. The GI50 in [13], in test [14], in test [20], in test [15], in [16] and in test [17] was > 100 µM (inactive) in each case. Besides, in test [18], the GI50 is > 100 µM (inactive).

Take `CCC1CNC(=O)CC1CC(=O)OC` (configuration not stated): the GI50 in test [1], in test [19], in test [2], in [3], in test [4] and in [5] was > 100 µM (inactive) throughout. The GI50 in [6], in test [7], in test [8], in [9], in [10] and in test [11] was > 100 µM (inactive) each time. Further, the GI50 in test [13], in [20], in test [16] and in [17] was > 100 µM (inactive) throughout.

Values taken from ChEMBL document CHEMBL1201862, “PubChem BioAssay data set” (2004).
